Data taken from publication PMC5052595, “Structure-based discovery of potentially active semiochemicals for Cydia pomonella (L.)” (Scientific Reports, 2016).

Legend:
[1] = target: CpomPBP1; experiment: Competitive binding assay with 1-NPN fluorescence probe; parameters: species or system Cydia pomonella; conditions: for Kd: wild type CpomPBP1, 2 μM protein, 2 μM 1-NPN, 50 mM Tris-HCl pH 7.0, read-out: dissociation constant (Kd)
Description: (§1) According to the results of virtual screening and commercial availability of the matched semiochemicals, 8 compounds (including Codlemone) were finally subjected to competitive binding assay by taking 1-NPN as the fluorescence probe. All ligands including 1-NPN were dissolved in ethanol of GC grade. […] The fluorescence was measured on a Hitachi F-4600 spectrofluorimeter with a slit width of 5 nm for excitation and emission. The excitation wavelength was decided to be 337 nm and the fluorescence emissions were recorded from 350 to 500 nm. The in vitro binding assays between CpomPBP2 and small molecule compounds were performed in the same way.
(§2) It was assumed that CpomPBP1 (MT and WT) was 100% active and the binding between protein and ligand was 1:1 at saturation. To analyze the obtained data and to calculate the Kd of each ligand, Graphpad Prism software (Graphpad software, Inc.) was employed.

[2] = target: CpomPBP2 (Cydia pomonella, UniProt I3ZNT9); experiment: as above
Chain of CpomPBP2 (I3ZNT9 26-169 limits assumed): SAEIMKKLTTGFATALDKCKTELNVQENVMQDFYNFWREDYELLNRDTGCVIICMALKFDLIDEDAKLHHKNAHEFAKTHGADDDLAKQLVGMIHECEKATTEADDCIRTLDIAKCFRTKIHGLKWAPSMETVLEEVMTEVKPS
Description: as §1, §2

[3] = tested on: CpomPBP1F36A; experiment: Competitive binding assay, mutant protein; parameters: species or system Cydia pomonella; conditions: F36A; RTln(Kd-MT/Kd-WT)
Description: as §1
(§3) To test binding ability changes of CpomPBP1 caused by the mutation of each target site, the in vitro binding assays between CpomPBP1 proteins (MT and WT CpomPBP1) and ETrME was implemented according to the part of competitive binding assay.
as §2
(§4) The experimental binding free energy of the complexes formed by ETrME and each mutant was calculated by the equation (1): […]
(§5) In this equation, Kd-MT and Kd-WT are the dissociation constants for mutant and wild CpomPBP1 respectively. R stands for the ideal gas constant and T means the temperature in Kelvin.

[4] = tested on: CpomPBP1I52A; experiment: Competitive binding assay, mutant protein; parameters: species or system Cydia pomonella; conditions: I52A; RTln(Kd-MT/Kd-WT)
Description: as §1, §3, §2, §4, §5

[5] = tested on: CpomPBP1I94A; experiment: Competitive binding assay, mutant protein; parameters: species or system Cydia pomonella; conditions: I94A; RTln(Kd-MT/Kd-WT)
Description: as §1, §3, §2, §4, §5

[6] = tested on: CpomPBP1W37A; experiment: Competitive binding assay, mutant protein; parameters: species or system Cydia pomonella; conditions: W37A; RTln(Kd-MT/Kd-WT)
Description: as §1, §3, §2, §4, §5

[7] = tested on: CpomPBP1F12A; experiment: Competitive binding assay, mutant protein; parameters: species or system Cydia pomonella; conditions: F12A; RTln(Kd-MT/Kd-WT)
Description: as §1, §3, §2, §4, §5

CCCCC/C=C\C/C=C\C/C=C\CCCCCCC(=O)O [Z-8,11,14-Eicosatrienoic acid]
Kd [1]: 12.8 µM

CCC=CCC=CCC=CCCCCCCCCCC(=O)OC [ETrME]
Kd ([2]; CpomPBP2, 1-NPN competitive binding, read-out: dissociation constant (Kd)): 8.62 µM | ΔΔGbind-exp [3]: 3.25 kcal/mol | ΔΔGbind-exp [4]: 1.86 kcal/mol | ΔΔGbind-exp [5]: 1.4 kcal/mol | ΔΔGbind-exp [6]: 3.54 kcal/mol | ΔΔGbind-exp [7]: 2.80 kcal/mol | Kd [1]: 3.14 µM

CCCCC/C=C\C/C=C\CCCCCCCC(=O)O [Linoleic acid]
binding to CpomPBP1 (in words) ([1]; titration 0 to 64 μM ligand, 1-NPN probe): no binding

CCC=CCC=CCC=CCC=CC=CC(O)CCCC(=O)O (racemic) [(±)5-HEPE]
Kd [1]: 8.23 µM

C/C=C/C=C/CCCCCCCO [Codlemone, reference compound]
binding to CpomPBP2 (in words) ([2]; titration course, 1-NPN probe): no binding | Kd [1]: 3.78 µM
